Reference: PubChem BioAssay (NCI)
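48-hour exposure; five concentrations; linearly interpolated endpoints. GI50 is the concentration that inhibits growth by half. TGI: concentration producing complete growth inhibition.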

Key:
Assay in all cases: inhibition of tumour cell growth, NCI panel, 48 h
[1] = system: RXF 393 renal
[2] = system: U251 CNS
[3] = system: MDA-N
[4] = system: BT-549 breast
[5] = system: LOX IMVI melanoma
[6] = system: SK-MEL-28 melanoma
[7] = system: HS 578T breast
[8] = system: NCI-H522 lung
[9] = system: DMS 114 small cell lung
[10] = system: KM20L2 colon
[11] = system: DMS 273 small cell lung
[12] = system: XF 498 CNS
[13] = system: DLD-1 colon

Row | Compound | TGI [1] [µM] | TGI [2] [µM] | TGI [3] [µM] | TGI [4] [µM] | TGI [5] [µM] | TGI [6] [µM] | TGI [7] [µM] | TGI [8] [µM] | TGI [9] [µM] | TGI [10] [µM] | TGI [11] [µM] | TGI [12] [µM] | TGI [13] [µM] | GI50 [1] [nM] | GI50 [2] [µM] | GI50 [4] [µM] | GI50 [5] [µM] | GI50 [6] [µM] | GI50 [7] [µM] | GI50 [8] [µM]
1 | COC(=O)C1C(C(=O)OC)N(Cc2ccccc2)C(=O)N1Cc1ccccc1 (stereo unspecified) | > 100 | > 100 | > 100 | > 100 | > 100 | > 100 | > 100 | 96.3 | – | – | – | – | – | – | – | – | – | – | – | –
2 | O=C1C(Cl)=C(N2CCN(C3=C(Cl)C(=O)c4ccccc4C3=O)CC2)C(=O)c2ccccc21 | 3.02 | 6.19 | 3.29 | 3.12 | 3.12 | 3.48 | 7.12 | 1.83 | 2.64 | 14 | 5.44 | 2.66 | 0.937 | – | – | – | – | – | – | –
3 | C#CCCCCC#Cc1ccccc1C(=O)OC | 95.1 | > 100 | – | – | 33.1 | > 100 | – | – | 60 | > 100 | > 100 | > 100 | > 100 | – | – | – | – | – | – | –
4 | CC1=C(O)C(=O)[C@@H]2O[C@@H]2C1=O | 7.88 | 46.3 | – | – | 26.8 | 16.7 | – | 4.56 | 28.4 | 49.4 | 62.3 | 23.3 | 21.7 | – | – | – | – | – | – | –
5 | Oc1ccc(/C=C/c2cc(O)cc(O)c2)cc1 | > 100 | > 100 | > 100 | > 100 | – | > 100 | – | – | – | – | – | – | – | – | – | – | – | – | – | –
6 | COCCOCOc1ccc(OCc2ccccc2)cc1 | > 100 | > 100 | – | – | > 100 | > 100 | – | – | > 100 | > 100 | > 100 | > 100 | > 100 | – | – | – | – | – | – | –
7 | C/C(CCOC1CCCCO1)=C(\C)[Si](C)(C)C (stereo unspecified) | – | > 100 | – | – | > 100 | > 100 | – | > 100 | > 100 | > 100 | – | > 100 | > 100 | – | – | – | – | – | – | –
8 | COc1ccc2[nH]c(O)c(/C=c3/cc4c(c(-c5cc(OC)c(OC)c(OC)c5)n3)=Nc3ccccc3-4)c2c1 | 41.9 | > 100 | – | 83.5 | > 100 | > 100 | > 100 | > 100 | – | – | – | – | – | 2410 | 3.53 | 5.13 | 7.54 | 26 | 9.81 | 5.03
9 | CCCc1cc(=O)c2c(C)c3[nH]c4ccc(Cl)cc4c3c(C)c2[nH]1 | 3.86 | 3.65 | 3.9 | – | 3.33 | 3.14 | 32.7 | 4.51 | – | – | – | – | – | – | – | – | – | – | – | –
10 | CCN1c2ccccc2-n2c(C)nnc2-c2c1n[nH]c2-c1ccccc1 | > 100 | 46.8 | > 100 | – | 89.2 | > 100 | > 100 | 5.98 | – | – | – | – | – | – | – | – | – | – | – | –
11 | C=CCN1C(=O)/C(=C/c2ccccc2)N=C1SC1OC(COC(=O)c2ccccc2)C(OC(=O)c2ccccc2)C1OC(=O)c1ccccc1 (stereo unspecified) | > 100 | > 100 | – | > 100 | > 100 | > 100 | – | 41.5 | – | – | – | – | – | – | – | – | – | – | – | –
